Test results: patent publication US20180153867A1, “TREATMENT OF PROSTATE CANCER BY CONCOMITANT ADMINISTRATION OF A BROMODOMAIN INHIBITOR AND A SECOND AGENT” (Gilead Sciences, Inc., priority 2016, published 2018)
Entries after “also recorded” stand apart in the source; their conditions may differ.

Columns and labels:
[1] = test system: VCaP (AR-V7 positive) cells; assay: Cell growth inhibition in VCaP cells (Cell Titer-Glo, 96 hours); assay type: cell-based; conditions: for EC50: Homo sapiens, VCaP; for inhibition of cell growth and viability / effect on growth and number of viable VCaP cells (in words): 96 hours; for effect on growth and number of viable VCaP cells (in words): single agent, 3 to 10,000 nM
Method: (§1) VCaP cells were grown under standard cell culture conditions in 10% fetal bovine serum (FBS). LNCaP cells were grown in charcoal stripped FBS supplemented with 10 nM DHT in a 3-dimensional cell spheroid culture system, which increases androgen-dependent growth. […] This concentration of enzalutamide (3000 nM) was chosen for the combination study because it matches the clinical steady state trough level of enzalutamide at the recommended dose of 160 mg QD after accounting for differences in protein binding between cell culture media and human plasma. Cell growth and number was measured by quantification of the total cellular ATP content (Cell Titer-Glo® Luminescent Cell Viability Assay) at the time of compound addition (T=0), and after 96 hours of treatment.
(§2) Referring again to FIG. 1, the Y-axis is normalized CellTiter-Glo values where the bottom of the assay (no ATP)=0% and the DMSO-treated cells=100% at the end of the assay. T=0 represents the CellTiter-Glo signal recorded at the time of compound addition. […] One representative of three independent experiments is shown.

[2] = test system: LNCaP (AR-V7 negative) cells; assay: Cell growth inhibition in LNCaP cells, 3-dimensional spheroid culture (Cell Titer-Glo, 96 hours); assay type: cell-based
Method: as §1, §2

[3] = dog, in vivo
Method: The Phase 1 study will be a 3+3 dose escalation to evaluate the safety, tolerability, PK, and maximum tolerated dose of compound (I-1) after multiple dosing in patients with CRPC. The initial dose will be at 0.6 mg, and intensive safety, PK and PD monitoring will occur prior to each dose escalation. […] Approximately six dose levels will be explored. The PD assessment will be a NanoString assay that measures levels of HEXIM1 and CCR2 RNA in peripheral blood cells.

[4] = Protein binding difference between cell culture media and human plasma; assay type: in vitro ADME; conditions: cell culture media vs human plasma
[5] = patients, enzalutamide; cited from earlier work
[6] = compound (I-1) alone at its projected Cmax
[7] = compound (I-1) alone at its projected Cmin
[8] = compound (I-1) at its projected Cmax with 3,000 nM enzalutamide
[9] = compound (I-1) at its projected Cmin with 3,000 nM enzalutamide

| Compound | EC50 ([1]; compound (I-1) alone) [nM] | EC50 ([1]; in the presence of 3,000 nM enzalutamide) [nM] | inhibition of cell growth and viability [1, 6] [%] | inhibition of cell growth and viability [1, 7] [%] | inhibition of cell growth and viability [1, 8] [%] | inhibition of cell growth and viability [1, 9] [%] | effect on growth and number of viable VCaP cells (in words) [1] | inhibition of cell growth and viability [2, 6] [%] | inhibition of cell growth and viability [2, 7] [%] | inhibition of cell growth and viability [2, 8] [%] | inhibition of cell growth and viability [2, 9] [%] | dose/toxicity relationship [3] | difference in protein binding between cell culture media and human plasma [4] [×] | OS HR [5] | increase in OS [5] [month] |
| --- | --- | --- | --- | --- | --- | --- | --- | --- | --- | --- | --- | --- | --- | --- | --- |
| Cc1noc(C)c1-c1cc(C(O)(c2ccccn2)c2ccccn2)c2nc(C3CC3)[nH]c2c1 [compound (I-1), (2-cyclopropyl-6-(3,5-dimethylisoxazol-4-yl)-1H-benzo[d]imidazol-4-yl)di(pyridin-2-yl)methanol] | 130 | 75 | 40 | 0 | 65 | 25 | potently reduced the growth of VCaP cells; also recorded: decreased the number of viable cells to below that recorded at the beginning of the assay (T=0) | 45 | 20 | 65 | 45 | steep dose/toxicity relationship | 5.7 |  |  |
| CNC(=O)c1ccc(N2C(=S)N(c3ccc(C#N)c(C(F)(F)F)c3)C(=O)C2(C)C)cc1F [enzalutamide] |  |  |  |  |  |  | reduced the growth of VCaP cells but the magnitude of growth suppression was significantly less than that observed for compound (I-1) |  |  |  |  |  |  | 0.69 | 3.4 |
